From PMC6234871 (mBio, 2018)

Experiments:
[1] = molecular target: T1, PfHAD2 (HAD2, 6×His-HAD2) (Plasmodium falciparum, UniProt Q8I5F4); assay: continuous absorbance at […] nm; type: biochemical; conditions: 10 mM pNPP, 1.2 µM enzyme, 5 mM MgCl2, 50 mM Tris-HCl pH 7.5, 37°C
T1 construct: gene PF3D7_1226300; native mass about 33 kDa

[2] = molecular target: T1, PfHAD2 (HAD2, 6×His-HAD2); assay: EnzChek phosphate release assay (MESG/PNP coupled); type: biochemical; conditions: 5 mM substrate, 730 nM enzyme, 20 mM MgCl2, 50 mM Tris-HCl pH 8.0; normalised to D26A mutant

SMILES	continuous absorbance at 405 nm [1]	EnzChek phosphate release assay (MESG/PNP coupled) [2]
O=[N+]([O-])c1ccc(OP(=O)(O)O)cc1 [para-nitrophenyl phosphate]	confirmed the phosphatase activity of recombinant PfHAD2 using para-nitrophenyl phosphate (pNPP)	
O=P(O)(O)OC(CO)CO [glycerol 2-phosphate]		PfHAD2 is a phosphatase with activity against small phosphosubstrates, such as glc2P
